The CheMixHub ionic liquid set

Test: xn = mol fraction of the nth substance listed
Conditions: 100 kPa

CS(C)=O + CC(N)C(=O)[O-].COCCCCn1cc[n+](C)c1
Conditions	viscosity [mPa·s]
308.15 K, x2 = 0	1.65

CCCC[N+](CCCC)(CCCC)CCCC.[Cl-] + CCC(=O)O
Conditions	viscosity [mPa·s]
298 K, x1 = 0.5	3300

CCCCCCCCCCCCCC[P+](CCCCCC)(CCCCCC)CCCCCC.[c-]1c[nH]nn1 + CCCCCCCCCCCCCC[P+](CCCCCC)(CCCCCC)CCCCCC.O=S(=O)([N-]S(=O)(=O)C(F)(F)F)C(F)(F)F
Conditions	viscosity [mPa·s]
288.15 K, x2 = 0.7	693
293.15 K, x2 = 0.5	502
293.15 K, x2 = 0.7	495
303.15 K, x2 = 0.401	288
303.15 K, x2 = 0.5	270
303.15 K, x2 = 0.7	270
308.15 K, x2 = 0.203	217
308.15 K, x2 = 0.5	204
308.15 K, x2 = 0.902	181

CCCCC[N+](CCCCC)(CCCCC)CCCCC.O=[N+]([O-])[O-] + CCCCCCCCCCCCOS(=O)(=O)[O-].[Na+] + O
viscosity [mPa·s]
Conditions	x2 = 1.81e-06, x1 = 0.0001802	x2 = 3.62e-06, x1 = 0.0001802	x2 = 5.42e-06, x1 = 0.0001802	x2 = 7.23e-06, x1 = 0.0001802	x2 = 9.04e-06, x1 = 0.0001802	x2 = 1.085e-05, x1 = 0.0001802	x2 = 1.266e-05, x1 = 0.0001802	x2 = 1.447e-05, x1 = 0.0001802	x2 = 1.627e-05, x1 = 0.0001802	x2 = 1.808e-05, x1 = 0.0001802
293.15 K	1.017	1.018	1.019	1.02	1.02	1.02	1.021	1.021	1.021	1.021
298.15 K	0.903	0.905	0.906	0.907	0.907	0.908	0.908	0.908	0.909	0.909
303.15 K	0.8	0.801	0.801	0.801	0.801	0.802	0.802	0.803	0.803	0.804
308.15 K	0.713	0.713	0.713	0.713	0.714	0.714	0.715	0.716	0.716	0.716
313.15 K	0.647	0.647	0.648	0.648	0.648	0.649	0.649	0.649	0.65	0.65
318.15 K	0.601	0.601	0.601	0.601	0.602	0.602	0.602	0.602	0.603	0.603
